The structures appear in SMILES notation.

This note sets out measurements from patent publication US20190062428A1, “COMBINATION OF ANTI-CD47 ANTIBODIES AND CELL DEATH-INDUCING AGENTS, AND USES THEREOF” (Surface Oncology, Inc., priority 2017, published 2019).

In the experiment the test system is Ri-1 tumors. The experiment in a line: Ri-1 human B cell lymphoma (DLBCL) subcutaneous xenograft, tumor volume. It counts as in vivo, CB.17 SCID mice. The settings on record: FIG. 4. As to the method: The Ri-1 cell line is a human B cell lymphoma line that represents the ABC-subtype of diffuse large cell B cell lymphoma (DLBCL) and harbors a BCL-2 amplification. ABT-199, also known as Venclexta™ or Venetoclax, is an oral BCL-2 inhibitor, and was used as the cell death-inducing agent.
Briefly, 1×10^7 Ri-1 cells were injected subcutaneously into the right flank of CB.17 SCID mice in a 1:1 mixture of RPMI and Matrigel. Tumors were allowed to grow until they were 200-300 mm^3.
For orientation: In xenograft studies the graft and the host belong to different species.

For `CC1(C)CCC(CN2CCN(c3ccc(C(=O)NS(=O)(=O)c4ccc(NCC5CCOCC5)c([N+](=O)[O-])c4)c(Oc4cnc5[nH]ccc5c4)c3)CC2)=C(c2ccc(Cl)cc2)C1` [ABT-199, reference compound], for the setting “2.3D11 100 μg/mouse days 0, 3, 7, ABT-199 25 mg/kg days 0-4”, the single-agent anti-tumor activity result was “potent single-agent anti-tumor activity”. Further, the tumor re-growth entry (single agents as above, combination: 2.3D11 100 μg/mouse day 0, then oral ABT-199 25 mg/kg days 3, 4, 5) was “tumors re-grew”.
